Reference: ChEMBL document CHEMBL5303573, “Mapping human microbiome drug metabolism by gut bacteria and their genes” (Nature, 2019)

What was measured:
[1] = The drug is tested on Bacteroides coprophilus strain: DSM18228 for biotransformation. The drug concentrations were measured before and after a 12-h incubation by liquid-chromatography-coupled mass spectrometry (LC–MS); details: 2 µM
[2] = The drug is tested on Clostridium spiroforme strain: DSM1552 for biotransformation. The drug concentrations were measured before and after a 12-h incubation by liquid-chromatography-coupled mass spectrometry (LC–MS); details: thomasclavelia spiroformis, 2 µM
[3] = The drug is tested on Ruminococcus lactaris strain: ATCC29176 for biotransformation. The drug concentrations were measured before and after a 12-h incubation by liquid-chromatography-coupled mass spectrometry (LC–MS); details: 2 µM
[4] = clostridioides difficile, 12 h, 2 µM
Description: The drug is tested on Clostridium difficile strain: 120 for biotransformation. The drug concentrations were measured before and after a 12-h incubation by liquid-chromatography-coupled mass spectrometry (LC–MS)

[5] = victivallis vadensis, 12 h, 2 µM
Description: The drug is tested on Victivallis vadensis strain: ATCC BAA-548 for biotransformation. The drug concentrations were measured before and after a 12-h incubation by liquid-chromatography-coupled mass spectrometry (LC–MS)

[6] = The drug is tested on Eggerthella lenta strain: ATCC25559 for biotransformation. The drug concentrations were measured before and after a 12-h incubation by liquid-chromatography-coupled mass spectrometry (LC–MS); details: 2 µM
[7] = The drug is tested on Subdoligranulum variabile strain: DSM15176 for biotransformation. The drug concentrations were measured before and after a 12-h incubation by liquid-chromatography-coupled mass spectrometry (LC–MS); details: 2 µM
[8] = The drug is tested on Escherichia coli strain: BW25113 for biotransformation. The drug concentrations were measured before and after a 12-h incubation by liquid-chromatography-coupled mass spectrometry (LC–MS); details: 2 µM
[9] = The drug is tested on Collinsella aerofaciens strain: ATCC25986 for biotransformation. The drug concentrations were measured before and after a 12-h incubation by liquid-chromatography-coupled mass spectrometry (LC–MS); details: 2 µM
[10] = The drug is tested on Bacteroides fragilis strain: T(B)9 for biotransformation. The drug concentrations were measured before and after a 12-h incubation by liquid-chromatography-coupled mass spectrometry (LC–MS); details: 2 µM
[11] = The drug is tested on Providencia alcalifaciens strain: DSM30120 for biotransformation. The drug concentrations were measured before and after a 12-h incubation by liquid-chromatography-coupled mass spectrometry (LC–MS); details: 2 µM
[12] = The drug is tested on Eubacterium biforme strain: DSM3989 for biotransformation. The drug concentrations were measured before and after a 12-h incubation by liquid-chromatography-coupled mass spectrometry (LC–MS); details: holdemanella biformis, 2 µM

Row | SMILES | Bacterial Biotransformation [1] | Bacterial Biotransformation [2] | Bacterial Biotransformation [3] | Bacterial Biotransformation [4] | Bacterial Biotransformation [5] | Bacterial Biotransformation [6] | Bacterial Biotransformation [7] | Bacterial Biotransformation [8] | Bacterial Biotransformation [9] | Bacterial Biotransformation [10] | Bacterial Biotransformation [11] | Bacterial Biotransformation [12]
1 | CC1Cc2ccccc2N1NC(=O)c1ccc(Cl)c(S(N)(=O)=O)c1 (configuration not stated) [INDAPAMIDE] | Compound NOT metabolized | Compound NOT metabolized | Compound NOT metabolized | Compound NOT metabolized | Compound NOT metabolized |  |  |  |  |  |  | 
2 | CN1CCN(C2=Nc3ccccc3Oc3ccc(Cl)cc32)CC1.O=C(O)CCC(=O)O [LOXAPINE SUCCINATE] | Compound NOT metabolized |  | Compound NOT metabolized |  | Compound NOT metabolized | Compound NOT metabolized | Compound NOT metabolized | Compound NOT metabolized |  |  |  | 
3 | C=CCN1CC[C@]23c4c5ccc(O)c4O[C@H]2C(=O)CC[C@@]3(O)[C@H]1C5 [NALOXONE] | Compound metabolized |  | Compound NOT metabolized |  | Compound NOT metabolized | Compound metabolized | Compound NOT metabolized | Compound NOT metabolized | Compound NOT metabolized |  |  | 
4 | COc1ccc2cc([C@H](C)C(=O)O)ccc2c1 [NAPROXEN] | Compound NOT metabolized | Compound NOT metabolized | Compound NOT metabolized | Compound NOT metabolized | Compound NOT metabolized | Compound NOT metabolized |  | Compound NOT metabolized | Compound NOT metabolized | Compound NOT metabolized | Compound NOT metabolized | 
5 | CCc1nn(CCCN2CCN(c3cccc(Cl)c3)CC2)c(=O)n1CCOc1ccccc1 [NEFAZODONE] | Compound NOT metabolized |  | Compound NOT metabolized |  | Compound NOT metabolized | Compound NOT metabolized | Compound NOT metabolized | Compound NOT metabolized | Compound NOT metabolized |  |  | 
6 | CO[C@]12C[C@@H](COC(=O)c3cncc(Br)c3)CN(C)[C@@H]1Cc1cn(C)c3cccc2c13 [NICERGOLINE] | Compound NOT metabolized |  | Compound NOT metabolized |  | Compound NOT metabolized | Compound NOT metabolized | Compound NOT metabolized | Compound NOT metabolized |  |  |  | 
7 | C#C[C@]1(OC(C)=O)CC[C@H]2[C@@H]3CCC4=C/C(=N/O)CC[C@@H]4[C@H]3CC[C@@]21CC [NORGESTIMATE] | Compound NOT metabolized | Compound NOT metabolized | Compound NOT metabolized |  | Compound NOT metabolized | Compound metabolized | Compound NOT metabolized | Compound NOT metabolized | Compound NOT metabolized | Compound NOT metabolized | Compound NOT metabolized | Compound metabolized
8 | NC(=O)N1c2ccccc2CC(=O)c2ccccc21 [OXCARBAZEPINE] | Compound metabolized |  | Compound metabolized |  | Compound NOT metabolized | Compound metabolized | Compound NOT metabolized | Compound metabolized | Compound NOT metabolized |  |  | 
9 | CN(C(=O)CN(CCO)CC(=O)N(C)C(C)(C)Cc1ccccc1)C(C)(C)Cc1ccccc1 [OXETHAZAINE] | Compound NOT metabolized |  | Compound NOT metabolized |  | Compound NOT metabolized | Compound NOT metabolized | Compound NOT metabolized |  | Compound NOT metabolized |  |  | 
10 | CCN(CC)CC#CCOC(=O)C(O)(c1ccccc1)C1CCCCC1.Cl (configuration not stated) [OXYBUTYNIN CHLORIDE] |  |  | Compound NOT metabolized |  | Compound NOT metabolized | Compound NOT metabolized | Compound NOT metabolized | Compound NOT metabolized | Compound NOT metabolized |  |  | 
11 | CCCN1C[C@H](CSC)C[C@@H]2c3cccc4[nH]cc(c34)C[C@H]21.CS(=O)(=O)O [PERGOLIDE MESYLATE] | Compound NOT metabolized |  |  |  | Compound NOT metabolized | Compound NOT metabolized | Compound NOT metabolized | Compound NOT metabolized | Compound NOT metabolized |  |  | 
